Experimental data: patent US7919577B2, “Adrenocorticotropic hormone analogs and related methods” (Colorado Seminary, priority 2004, dated 2011)
No end group written: not given here.

Assays:
[1] = test system: explanted mouse adrenal membrane (adrenal halves); test: in vitro Serum-free Adrenal Inhibition Assay (Example 4); format: cell-based; conditions: FIG. 4
Protocol: A series of separate in vitro Serum-Free Adrenal Corticosteroid Inhibition Assay were performed to identify ACTH analogs that inhibit ACTH-induced adrenal hormone production in vitro. The concentration of corticosterone was measured according to the procedure of Example 4 in a serum-free culture medium containing explanted adrenal membrane and unmodified ACTH, AT814 ACTH analog (SEQ ID NO:20), or a combination of ACTH and AT814 at 100 ng/mL each. […] Corticosterone levels were taken at 2.0 hours after the adrenal membrane was placed in the serum free M199 medium, and each corticosterone level in Table 5 is an average of five samples.
The in vitro Serum-free Adrenal Inhibition Assay was performed according the following method. First, adrenals were removed from mice, dissected free of fat, and cut in half. See Costa, J L, et al., “Mutational analysis of evolutionarily conserved ACTH residues,” Gen Comp Endocrinol. 136:12-16 (2004); and Weber, M M, et al., “Postnatal overexpression of insulin-like growth factor II in transgenic mice is associated with adrenocortical hyperplasia and enhanced steroidogenesis,” Endocrinology 140:1537-1543 (1999), incorporated herein by reference.
Second, each adrenal half was placed into an individual well of a 4-well dish, one dish per mouse. Adrenal halves were incubated at 5% CO2, 37° C., in 0.5 ml serum-free medium (M199; Invitrogen) for 30 minutes to equilibrate.
Third, medium was removed and replaced by 0.5 ml M199 containing ACTH, AT814, or both, at 100 ng/ml each; controls had no peptides added.
Fourth, after 2 hours of incubation, the medium was removed, pooled for all four halves from each mouse, and assayed by corticosterone using standard RIA methods. corticosterone was determined by competitive radioimmunoassay (^125I RIA kit; ICN, Costa Mesa, Calif.) according to the manufacturer's recommendations. One microliter of serum was used per assay sample. Samples were run in duplicates.

[2] = target: T1, adrenal ACTH receptors such as MC-2R (explanted adrenal membrane) (Mus musculus, UniProt Q64326+Q9D159); test: in vitro Serum-free Adrenal Competitive Binding Assay (Example 3); conditions: cold peptide at 10 nM, 100 nM, 1000 nM; CPM; FIG. 3
T1 construct: the adrenal halves were macerated or otherwise dissociated using Dounce Homogenizer to form a membrane fraction; from tissue; host or cells: mouse adrenal glands (explanted, homogenised to a membrane fraction)
Source text: ACTH analog compounds that bind to adrenal membrane with a greater affinity than endogenous unmodified ACTH, and are able to displace unmodified ACTH can be identified using an in vitro Serum-free Adrenal Competitive Binding Assay (Example 3). […] A higher CPM level indicates the presence of greater amounts of the radiolabelled compound. […] Column 220 indicates the level of radio-labeled unmodified mACTH(1-24) detected after combining the explanted adrenal membrane with only the radio-labeled mACTH(1-24) for 2 hours (no competitive binding). Columns 230, 240, and 250 show the results of competitive binding assays for binding of non-radio-labeled (“cold”) mACTH(1-24) to displace the radio-labeled mACTH(1-24) from the explanted adrenal membrane (measured in column 220) by competitive binding to receptors such as MC-2R on the adrenal membrane. […]
ACTH analogs with the ability to bind adrenal receptors with a greater affinity than compounds with known adrenal binding activity (preferably ACTH) can also be identified by performing an in vitro Adrenal Competitive Binding Assay, whereby measurement of the reduction in the amount of the radiolabelled adrenal-binding compound (e.g., ACTH) is measured at various concentrations of non-radio-labeled ACTH analog test compound in a medium containing explanted adrenal membrane. […]

T1 sequence (Q64326 whole entry): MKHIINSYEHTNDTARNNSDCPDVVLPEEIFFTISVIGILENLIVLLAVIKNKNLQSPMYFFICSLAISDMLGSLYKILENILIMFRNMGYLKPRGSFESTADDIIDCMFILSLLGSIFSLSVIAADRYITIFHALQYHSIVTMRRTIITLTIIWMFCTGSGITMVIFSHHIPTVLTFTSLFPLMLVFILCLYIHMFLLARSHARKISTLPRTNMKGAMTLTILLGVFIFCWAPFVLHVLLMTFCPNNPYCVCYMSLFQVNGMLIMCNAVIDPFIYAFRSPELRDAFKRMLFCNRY
T1 sequence (Q9D159 whole entry): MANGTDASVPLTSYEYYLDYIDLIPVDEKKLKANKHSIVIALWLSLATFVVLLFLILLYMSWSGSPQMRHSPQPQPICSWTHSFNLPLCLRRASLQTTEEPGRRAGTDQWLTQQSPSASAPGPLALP

N-Ser^1-Tyr-Ser-Met-Glu^5-His-Phe-Arg-Trp-Gly^10-Lys-Pro-Val-Gly-Lys^15-Arg-Ala-Ala-Trp-Val^20-Lys-Val-Tyr-Pro-Ac (SYSMEHFRWGKPVGKRAAWVKVYP; not fully specified; printed as N-Ser1-Tyr-Ser-Met-Glu5-His-Phe-Arg-Trp-Gly10-Lys-Pro-Val-Gly-Lys15-Arg-Ala-Ala-Trp-Val20-Lys-Val-Tyr-Pro-Ac) [AT814]
corticosterone induction by analog alone ([1]; AT814 alone in M199 serum-free medium): only a negligible amount of corticosterone induction
reduction of corticosterone induction compared to unmodified ACTH alone ([1]; equal amounts of AT814 and unmodified ACTH): about 65%
displacement of radio-labeled mACTH(1-24) from explanted adrenal membrane [2]: displacement of the radio-labeled mACTH(1-24)
